Data reported in US20230027929A1, “MrgprX2 Antagonists and Uses Thereof” (Dermira, Inc., priority 2019, published 2023).

Biological target: T1, hMrgpMRGPRX2 (Homo sapiens, UniProt Q96LB1)
T1 construct: expressed in transfected cells
T1 sequence (Q96LB1 1-330): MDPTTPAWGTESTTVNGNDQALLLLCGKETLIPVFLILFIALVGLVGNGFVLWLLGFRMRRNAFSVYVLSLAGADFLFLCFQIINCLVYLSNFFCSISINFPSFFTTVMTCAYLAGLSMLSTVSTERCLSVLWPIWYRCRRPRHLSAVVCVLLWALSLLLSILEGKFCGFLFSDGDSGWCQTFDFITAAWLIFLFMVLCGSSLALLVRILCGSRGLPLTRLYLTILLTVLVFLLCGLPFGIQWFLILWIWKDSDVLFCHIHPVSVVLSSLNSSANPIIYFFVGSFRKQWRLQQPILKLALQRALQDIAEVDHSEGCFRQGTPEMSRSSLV
Assay: FLIPR intracellular calcium mobilization, antagonist activity in recombinant hMrgpMRGPRX2 expressing cells
Type: cell-based
Conditions: read-out: Human MrgprX2 Antagonist pIC50 (converted)
From the text: Potent and selective hMrgpMRGPRX2 compounds have been generated from compounds identified during a high throughput screening (HTS) campaign and followed up with cycles of structure activity based medicinal chemistry efforts. These compounds were characterized in recombinant hMrgpMRGPRX2 expressing cells for their antagonist activity and the potency was confirmed in the human mast cell line LAD-2, where the target is endogenously expressed. The assays used to determine potencies are functional read-out looking at intracellular calcium mobilization using the FLIPR™ technology. In these FLIPR assays, we test the identified compounds using recombinant cellular systems expressing mouse MrgprB2, mouse MrgprA1, gerbil MrgpMRGPRX2 orthologue, Chinese hamster MrgpMRGPRX2 orthologue and cynomolgus monkey MrgpMRGPRX2 orthologue, respectively for orthologue activity.

Point of comparison: Cc1nc(-c2ccc(NC(=O)C3C(C)(C)C3(C)C)nc2)no1 [Compound E272, 2,2,3,3-tetramethyl-N-[5-(5-methyl-1,2,4-oxadiazol-3-yl)-2-pyridyl]cyclopropanecarboxamide], IC50 0.00851 µM. Against it:
- CC1(C)CC1C(=O)Nc1cnc(-c2cc(F)cc(C#N)c2)cn1 (centres unmarked) [Compound E230] — 34-fold higher, 0.288 µM
- CC1(C)CC1C(=O)Nc1ccc(-c2cc(F)ccc2F)cn1 (centres unmarked) [Compound E182] — 2.9-fold higher, 0.0251 µM
- COCCOc1ccc(NC(=O)C2C(C)(C)C2(C)C)nc1 [Compound E071] — 130-fold higher, 1.1 µM
- CCN(C[C@@H](O)C(F)(F)F)C(=O)Nc1cnc(Oc2ccc(C#N)cc2F)cn1 [Compound E256] — 41-fold higher, 0.347 µM
- CC1(C)C(C(=O)Nc2ccc(OCC(F)(F)F)cn2)C1(C)C [Compound E093, 2,2,3,3-tetramethyl-N-[5-(2,2,2-trifluoroethoxy)-2-pyridyl]cyclopropanecarboxamide] — 3.7-fold higher, 0.0316 µM
- CCN(C[C@@H](O)C(F)(F)F)C(=O)Nc1ccc(OCc2cccc(F)c2)cn1 [Compound E138] — 100-fold higher, 0.871 µM
- CC(C)C(=O)Nc1ccc(Oc2cc(F)cc(F)c2)cn1 [Compound E008] — within 1.5-fold, 0.00631 µM
- CC1(C)C(C(=O)Nc2ccc(Oc3cncc(F)c3)cn2)C1(C)C [Compound E0530] — 4.3-fold lower, 0.002 µM
- C[C@]1(C(=O)Nc2ccc(Oc3cc(F)cc(F)c3)cn2)CCCN1S(N)(=O)=O [Compound E282] — 3.2-fold higher, 0.0275 µM
- CC(C)C(=O)Nc1ccc(Oc2ccnc(F)c2)cn1 [Compound E022] — 1200-fold higher, 10 µM
- CCN(C[C@@H](OC)C(F)(F)F)C(=O)Nc1cnc(Oc2ccc(F)cc2F)cn1 [Compound E261] — 45-fold higher, 0.38 µM
- COc1cccc(-c2ccc(NC(=O)C(C)C)nc2)c1 [Compound E171] — 37-fold higher, 0.316 µM
- CC(C)C(=O)Nc1ccc(Oc2ccc(F)c(C#N)c2)cn1 [Compound E019] — 930-fold higher, 7.94 µM
- CCN(C[C@@H](O)C(F)(F)F)C(=O)Nc1ccc(F)cn1 [Compound E196] — 100-fold higher, 0.851 µM
- CCN(C[C@H](C)O)C(=O)Nc1ccc(-c2ccccc2)cn1 [Compound E195] — 590-fold higher, 5.01 µM
- CCN(C[C@@H](O)C(F)(F)F)C(=O)Nc1cnc(Oc2ccc(F)c(F)c2)cn1 [Compound E240] — 13-fold higher, 0.11 µM
- CC1(C)C(C(=O)Nc2cnc(Oc3cc(F)cc(F)c3)cn2)C1(C)C [Compound E220] — 5.4-fold lower, 0.00158 µM
- CN(C[C@@](C)(O)C(F)(F)F)C(=O)Nc1cnc(Oc2cc(F)ccc2F)cn1 [Compound E250] — 3.3-fold lower, 0.00257 µM
- CC1(C)C(C(=O)Nc2cnc(Cl)cn2)C1(C)C [Compound E214] — 12-fold higher, 0.1 µM
- O=C(Nc1ccc(Oc2ccc(F)c(F)c2)cn1)C1CC1(F)F (centres unmarked) [Compound E028] — 24-fold higher, 0.2 µM
- CC(C)C(=O)Nc1ccc(-c2ccc(F)cc2)cn1 [Compound E165] — 150-fold higher, 1.26 µM
- CCN(C[C@@H](O)C(F)(F)F)C(=O)Nc1ccc(Oc2ccc(F)cc2F)cn1 (single isomer, unassigned) [Compound E267] — 3.3-fold higher, 0.0282 µM
- CC(C)C(=O)Nc1ncc(Oc2cccc(F)c2)cc1O [Compound E287, N-[5-(3-fluorophenoxy)-3-hydroxy-2-pyridyl]-2-methyl-propanamide] — 93-fold higher, 0.794 µM
- CC(C)C(=O)Nc1ccc(-c2ccccc2F)cn1 [Compound E167] — 37-fold higher, 0.316 µM
- CCN(C[C@@H](O)C(F)(F)F)C(=O)Nc1cc(Oc2ccc(F)cc2F)ccn1 [Compound E159] — 1.7-fold higher, 0.0141 µM
- CC1(C)C(C(=O)Nc2ccc(C3=COCC3)cn2)C1(C)C [Compound E187] — 1.7-fold higher, 0.0145 µM
- CN(C[C@@](C)(O)C(F)(F)F)C(=O)Nc1ccc(Oc2cc(F)cc(F)c2)cn1 [Compound E140, 3-[5-(3,5-difluorophenoxy)-2-pyridyl]-1-methyl-1-[(2R)-3,3,3-trifluoro-2-hydroxy-2-methyl-propyl]urea] — 5.4-fold lower, 0.00158 µM
- CCN(C[C@@H](O)C(F)(F)F)C(=O)Nc1cnc(Oc2ccc(F)cc2)cn1 [Compound E252] — 69-fold higher, 0.589 µM
- CC(C)C(=O)Nc1cc(Oc2ccccc2)ccn1 [Compound E145, 2-methyl-N-(4-phenoxy-2-pyridyl)propanamide] — 93-fold higher, 0.794 µM
- N#C[C@H]1C[C@@H]1C(=O)Nc1ccc(Oc2ccc(F)c(F)c2)cn1 [Compound E050] — 47-fold higher, 0.398 µM
- CCN(C[C@@H](O)C(F)(F)F)C(=O)Nc1cnc(Oc2cccc(F)c2C#N)cn1 [Compound E251] — 3.2-fold higher, 0.0269 µM
- Cc1nc(NC(=O)N(C)C[C@@H](O)C(F)(F)F)ccc1Oc1ccc(F)c(F)c1 [Compound E121] — 83-fold higher, 0.708 µM
- CCN(C[C@@H](O)C(F)(F)F)C(=O)Nc1cc(Oc2ccc(C#N)cc2)ccn1 [Compound E157] — 190-fold higher, 1.58 µM
- CN(C[C@@](C)(O)C(F)(F)F)C(=O)Nc1ccc(Oc2ccc(F)c(F)c2)cn1 [Compound E139, 3-[5-(3,4-difluorophenoxy)-2-pyridyl]-1-methyl-1-[(2R)-3,3,3-trifluoro-2-hydroxy-2-methyl-propyl]urea] — 1.8-fold higher, 0.0151 µM
- COC(C)(C)C(=O)Nc1ccc(Oc2ccc(F)c(F)c2)cn1 [Compound E038] — 120-fold higher, 1 µM
- CC(C)C(=O)Nc1cnc(Oc2cc(F)cc(F)c2)cn1 [Compound E218] — 37-fold higher, 0.316 µM
- CC(C)C(=O)Nc1ccc(-c2cccc(C#N)c2)cn1 [Compound E170] — 24-fold higher, 0.2 µM
- CC(C)(CO)C(=O)Nc1ccc(Oc2cccc(F)c2)cn1 [Compound E014] — 470-fold higher, 3.98 µM
- CC1(C)C(C(=O)Nc2ccc(-c3ccn[nH]3)cn2)C1(C)C [Compound E176] — 14-fold higher, 0.12 µM
- O=C(CC1CC1)Nc1ccc(Oc2ccc(F)c(F)c2)cn1 [Compound E046] — 47-fold higher, 0.398 µM
- CC1(C)C(C(=O)Nc2cnc(Oc3ccc(F)c(F)c3)cn2)C1(C)C [Compound E224] — 2.1-fold lower, 0.00398 µM
- CN(C)c1ccc(NC(=O)C2C(C)(C)C2(C)C)nc1 [Compound E201, N-[5-(dimethylamino)-2-pyridyl]-2,2,3,3-tetramethyl-cyclopropanecarboxamide] — 19-fold higher, 0.162 µM
- CC1(C)CC1C(=O)Nc1ccc(Oc2cc(F)cc(C#N)c2)cn1 (centres unmarked) [Compound E041] — 19-fold higher, 0.158 µM
- CC1(C)C[C@H]1C(=O)Nc1ccc(Oc2ccc(F)c(F)c2)cn1 (single isomer, unassigned) [Compound E078] — within 1.5-fold, 0.00794 µM
- CC(C)N(C)C(=O)Nc1ccc(Oc2ccc(F)c(F)c2)cn1 [Compound E104] — 15-fold higher, 0.126 µM
- CC1(C)CC(=O)N(c2ccc(Oc3ccc(F)c(F)c3)cn2)C1 [Compound E284, 1-[5-(3,4-difluorophenoxy)-2-pyridyl]-4,4-dimethyl-pyrrolidin-2-one] — 210-fold higher, 1.78 µM
- CC(C)C(=O)Nc1ccc(N(C)c2ccccc2)cn1 [Compound E096, 2-methyl-N-[5-(N-methylanilino)-2-pyridyl]propanamide] — 290-fold higher, 2.51 µM
- Cn1ncc(-c2ccc(NC(=O)C3C(C)(C)C3(C)C)nc2)n1 [Compound E189, 2,2,3,3-tetramethyl-N-[5-(2-methyltriazol-4-yl)-2-pyridyl]cyclopropanecarboxamide] — 140-fold higher, 1.17 µM
- O=C(Nc1ccc(Oc2ccc(F)c(F)c2)cn1)C1CCOC1 (centres unmarked) [Compound E037] — 740-fold higher, 6.31 µM
- CC1(C)C(C(=O)Nc2cnc(Oc3cc(F)cc(C#N)c3)cn2)C1(C)C [Compound E223] — 3.7-fold higher, 0.0316 µM
- CC(C)C(=O)Nc1ccc(C2CCCC2)cn1 [Compound E177, N-(5-cyclopentyl-2-pyridyl)-2-methyl-propanamide] — 740-fold higher, 6.31 µM
- CCN(C[C@@H](O)C(F)(F)F)C(=O)Nc1cnc(Oc2cccc(F)c2F)cn1 [Compound E239] — within 1.5-fold, 0.00661 µM
- CC(C)C(=O)Nc1ccc(Oc2ccc(F)cc2)cn1 [Compound E003] — 37-fold higher, 0.316 µM
- CC1(C)C(C(=O)Nc2ccc(OC3COC3)cn2)C1(C)C [Compound E083] — 130-fold higher, 1.07 µM
- CC1(C)C(C(=O)Nc2ccc(Cl)cn2)C1(C)C [Compound E204] — 5.4-fold lower, 0.00158 µM
- CC(C)(C#N)C(=O)Nc1ccc(-c2cc(F)cc(F)c2)cn1 [Compound E178, 2-cyano-N-[5-(3,5-difluorophenyl)-2-pyridyl]-2-methyl-propanamide] — 150-fold higher, 1.26 µM
- CC(C)(CO)C(=O)Nc1ccc(Oc2ccc(F)c(F)c2)cn1 [Compound E039] — 470-fold higher, 3.98 µM
- CC(C)C(=O)Nc1ccc(Cc2ccccc2)cn1 [Compound E181] — 740-fold higher, 6.31 µM
- CC(C)C(=O)Nc1ccc(Cc2cccc(F)c2)cn1 [Compound E276, N-[5-[(3-fluorophenyl)methyl]-2-pyridyl]-2-methyl-propanamide] — 59-fold higher, 0.501 µM
- CN(C)C(=O)Nc1ccc(-c2cc(F)cc(F)c2)cn1 [Compound E193] — 740-fold higher, 6.31 µM
- Cn1cc(-c2ccc(NC(=O)C3C(C)(C)C3(C)C)nc2)nn1 [Compound E190, 2,2,3,3-tetramethyl-N-[5-(1-methyltriazol-4-yl)-2-pyridyl]cyclopropanecarboxamide] — 74-fold higher, 0.631 µM
- CCN(C[C@@H](O)C(F)(F)F)C(=O)Nc1ccc(Oc2cccc(F)c2C#N)cn1 [Compound E128] — 14-fold higher, 0.12 µM
- CC1(C)C(C(=O)Nc2ccc(N3CCC(F)C3)cn2)C1(C)C (centres unmarked) [Compound E099] — 2.9-fold higher, 0.0251 µM
- CC1(C)C(C(=O)Nc2ccc(Oc3cn[nH]c3)cn2)C1(C)C [Compound E074] — 30-fold higher, 0.257 µM
- CC(C)C(=O)Nc1ccc(Oc2ccccc2)cn1 [Compound E002] — 59-fold higher, 0.501 µM
- CCN(C[C@@H](O)C(F)(F)F)C(=O)Nc1ccc(Oc2ccc(F)cc2)cn1 [Compound E118] — 5.9-fold higher, 0.0501 µM
- CC1(C)OCCC1C(=O)Nc1ccc(Oc2ccc(F)c(F)c2)cn1 (centres unmarked) [Compound E068] — 31-fold higher, 0.263 µM
